# According to patent US20080220471A1, “Vectors and Methods Using Same” (Genentech, Inc., priority 2005, published 2008):
# Entries after “also recorded” stand apart in the source; their conditions may differ.
# What was measured:
# tumor = conditions: Teicher et al. 2002; cited from earlier work
# [1] = tested on: A375M-luc/shRNA-BRAF cells; experiment: A375M-luc systemic (metastatic) tumor model, survival and bioluminescence; type: in vivo, scid-beige mice; conditions: 1 mg/ml Dox in drinking water (Dox-mediated BRAF knockdown); i.v. 4×10^5 A375M-luc/shRNA-BRAF cells
# Procedure: To evaluate the efficacy of TASK121 knockdown in this model, cohorts of mice with similarly increasing tumor burden were divided into treatment groups. Scid-beige mice were injected intraperitoneally with […] 200 mg/kg D-luciferin (Biotium, Hayward, Calif.) and anesthetized using isoflurane. During image acquisition in a light-tight box, the animal was maintained on isoflurane via nose cone, and body temperature was maintained using a warming pad. Bioluminescence images were acquired using a cooled intensified charge-coupled device camera in an in vivo imaging system (Xenogen, Alameda, Calif.). Image acquisition times were about 1 minute. Images were processed by co-registering a reference image with a thresholded bioluminescence data image.
# For metastatic tumor models, female scid-beige mice were injected intravenously with 50 μL PBS containing 4×10^5 A375M-luc shRNA cell clones. Tumor progression was monitored by weekly bioluminescence imaging for luciferase and mice were monitored daily for survival. At least 9 mice were used for each cohort. […] This is a promising strategy to inhibit certain metastatic tumors.
# BRAF = BRAF knockdown in melanoma cell clones (immunoblot densitometry, quantitative PCR); type: cell-based, human; conditions: melanoma cell clones expressing inducible BRAF shRNA
# Excerpt: FIG. 10: Inducible knockdown of BRAF expression prevents melanoma tumor growth. (A). Schematic representation of a retroviral vector for tetracycline/doxycycline-inducible synthesis of shRNA. The Tet-repressor is constitutively expressed from the β-actin promoter and H1 RNA polymerase III promoter-driven transcription is thereby repressed in the absence of Dox by binding of the TetR protein to the Tet-responsive element sequence located immediately downstream of the TATA box. Addition of Dox results in dissociation of the TetR protein and derepression of the shRNA transcriptional unit. TATA, TATA box; TRE, Tet-responsive element; TetR, Tet-repressor protein; IRES, internal ribosomal entry site; PURO, puromycin resistance gene; LTR, long terminal repeat. B. Experimental validation of BRAF knockdown in melanoma cell lines. […] Lysates were then analyzed by immunoblotting. […]
# We generated stable cells that expressed the inducible shRNA retroviral vector shown in FIG. 10A (based on pHUSH-GW). […] In the uninduced state, cells expressing the inducible hairpins were not altered in their baseline growth properties and no discernable background expression could be detected (data not shown). […] BRAF knockdown was reversible and time-dependent, with the maximal mRNA depletion detected 2 days post induction and the corresponding protein depletion occurring at day 3.
# LOX-IMVI tumors = experiment: LOX-IMVI inducible shRNA subcutaneous xenograft; type: in vivo; conditions: for tumor growth: 2 mg/ml Dox plus 5% sucrose in drinking water, start at 100-150 mm^3
# Procedure: (§1) Six- to 8-week-old female athymic nu/nu mice or scid-beige mice were purchased from Charles River Laboratories. To assay for BRAF role in subcutaneous tumor models, mice were injected in the right flank with either 3×10^6 human LOX-IMVI or 1×10^7 human A375 TASK121-shRNA containing cell clones in 200 μL phosphate-buffered saline (PBS). When tumors reached a mean volume of 100-150 mm^3 the mice with similarly sized tumors were grouped into treatment cohorts. Mice received 5% sucrose only or 5% sucrose plus 1-2 mg/ml doxycycline for control and knockdown cohorts, respectively. All water bottles were changed 3 times per week. Tumors were measured with calipers and mice weighed twice per week. Mice whose tumors reach 2000 mm^3 were euthanized. At the end of the dosing study, or as indicated, appropriate tumor samples were taken. Each treatment group consisted of 7-10 mice and results are presented as mean tumor volume ±standard deviation (FIGS. 10C-E).
# [2] = tested on: pGL3-mu-p53 (murine p53 sequences); experiment: Luciferase-based transient co-transfection comparing shRNA and miRNA vectors against p53; type: cell-based; conditions: p53-1 sequence, higher transfection ratios
# Excerpt: FIG. 15: Luciferase-based transient co-transfection experiments compared shRNA and miRNA inducible expression vector performance. A. Comparison of H1-shRNA and CMV-miR vectors corresponding to murine p53 sequences transfected at 7.5:1, 5:1 and 2.5:1 shRNA:pGL3-mu-p53. B. The removal of the EmGFP leader rendered miR-p53-1 non-functional at a co-transfection ratio of 10:1.
# In order to compare the efficacy of shRNA versus miRNA design, two effective miRNAs directed against p53 were converted to H1-shRNAs by identifying the 21-22 nt active siRNA within the miRNA scaffold and then by converting these active siRNAs back to N19 shRNAs. In addition, we examined the effect of having a linker sequence upstream of the miRNA. The following oligonucleotides were used in this study: […]
# TetR protein = experiment: Western analysis of TetR protein expression in transiently transfected 293T cells; type: cell-based; conditions: transient transfection, compared to wildtype TetR coding sequence
# Procedure: To confirm that codon optimization of the TetR coding region increased expression of the TetR protein, Western analysis was performed. Briefly, plasmids containing the retroviral backbone comprising either wild type TetR (WT) or the codon optimized TetR (OPT) were transiently transfected into 293T cells using lipofectin (commercially available from GIBCO-BRL, Gaithersburg, Md.). Cell lysates were prepared by addition of 50 mM HEPES pH 7.4, 100 mM NaCl, 50 mM NaF, 5 mM B-glycerophosphate, 2 mM EGTA, 1 mM Na vanadate, 1% TX100 to a cell pellet, resolved on a 4-12% acrylamide gel and transferred to a PVDF membrane. Membranes were sequentially probed with Mouse α-TetR (1:5000; MolBiTec) and Rabbit α-Tubulin-HRP (1:5000, Santa Cruz Biotech, Santa Cruz, Calif.). […] “Ev” signifies negative control using retroviral vector lacking a shRNA cassette.
# A375 tumors = experiment: A375 inducible shRNA subcutaneous xenograft; type: in vivo, athymic nu/nu mice; conditions: 2 mg/ml Dox in drinking water
# Procedure: as §1
# [3] = tested on: pHUSH shGL3 clone B11 tumors; experiment: Tumor volume of pHUSH shGL3 clone B11 tumors at each Dox concentration; type: in vivo, mice; conditions: luciferase-targeting shRNA
# Procedure: FIG. 6: (A) The relative change in mean bioluminescence at each time point and treatment condition (n=5 mice per doxycycline dose). […] In addition to the luciferase expression analysis, tumor volume measurements were recorded for the pHUSH shGL3 clone B11 at each concentration of doxycycline.
# To determine whether Dox or shRNA expression influenced tumor growth in vivo, tumor volume measurements were recorded for the tumors at each concentration of Dox.
molecule,measurement,setting,value
Cl.Cn1cc(C2=C(c3cn(C4CCN(Cc5ccccn5)CC4)c4ccccc34)C(=O)NC2=O)c2ccccc21 [317615-HCL],anti-tumor effect,tumor,anti-tumor effect
"C[C@H]1c2cccc(O)c2C(=O)C2=C(O)[C@]3(O)C(=O)C(C(N)=O)=C(O)[C@@H](N(C)C)[C@@H]3[C@@H](O)[C@@H]21 [Dox, 1-dimethylamino-2,4-a,5,7,12-pentahydroxy-11-methyl-4,6-dioxo-1,4a,11,11a,12,12a-hexahydrotetracene-3-carboxamide]",median survival,[1],33.4 days
same,Dox IC50 for suppression of BRAF protein levels,BRAF,approximately 5 ng/ml
same,body weight between treatment groups,LOX-IMVI tumors; 2 mg/ml Dox plus 5% sucrose vs 5% sucrose,no difference in body weight
same,lethality or weight loss,"LOX-IMVI tumors; 2 mg/ml Dox via drinking water, LOX-IMVI and A375 xenograft experiments",No lethality or weight loss was observed
same,lower threshold for in vivo expression of the shRNA,"LOX-IMVI tumors; pHUSH vector system, drinking water",~0.02 mg/mL
H1-shRNA-p53-1: H1 promoter N19 shRNA converted from the p53-1 miRNA (nucleic acid) DNA: GATCCCCAGTACGTGCACATAACAGACTTTCAAGAGAAGTCTGTTGTGCACGTACTTTTTTTGGAAA,knockdown compared to CMV-miR,[2],slight increase in knockdown
"codon optimized TetR: TetR coding region codon optimized for mammalian expression (SEQ ID NO:1) (nucleic acid, Codon-optomized TetR) DNA: ATGTCCAGACTGGATAAGTCCAAGGTGATTAATTCCGCTCTGGAACTCCTGAACGAGGTCGGCATCGAGGGACTGACCACACGGAAGCTGGCTCAGAAACTCGGCGTCGAACAGCCTACCCTCTACTGGCATGTCAAAAATAAGAGAGCCCTCCTGGACGCCCTGGCTATCGAGATGCTGGACAGACACCACACCCACTTCTGCCCCCTGGAAGGCGAATCCTGGCAGGATTTCCTCCGGAACAACGCTAAAAGCTTTAGATGCGCCCTCCTCAGCCATAGAGACGGAGCTAAAGTGCACCTGGGAACCCGGCCTACAGAAAAACAGTACGAGACACTGGAAAACCAGCTCGCTTTCCTCTGCCAACAAGGCTTTAGCCTGGAAAACGCCCTCTACGCTCTCAGCGCTGTCGGCCATTTTACACTGGGCTGCGTGCTCGAGGACCAGGAGCACCAAGTGGCTAAAGAGAGCGGGAAACCCCTACCACCGATAGCATGCCCCCCCTGCTGAGACAAGCCATTGAGCTCTTTGATCATCAGGGAGCTGAACCCGCCTTCCTCTTTGGACTCGAACTCATTATTTGCGGACTCGAGAAGCAACTGAAATGCGAAAGCGGAAGCGCCTACTCCGGCTCCAGAGAATTTCGGTCCTACTAG",expression of the TetR protein,TetR protein,significantly increased expression of the TetR protein
GFP control shRNA: EGFP shRNA (SEQ ID NO:17/18) control hairpin in pHUSH (nucleic acid) sense: GATCCCCAGATCCGCCACAACATCGATTCAAGAGATCGATGTTGTGGCGGATCTTGTTTTTTGGAAA antisense: AGCTTTTCCAAAAAACAAGATCCGCCACAACATCGATCTCTTGAATCGATGTTGTGGCGGATCTGGG,tumor growth,A375 tumors,no discernable effect on tumor growth; also recorded: did not affect tumor growth kinetics
Luciferase control shRNA: shRNA targeting the luciferase coding region (SEQ ID NO:9 / 15) in pHUSH (nucleic acid) sense: GATCCCCCTTACGCTGAGTACTTCGATTCAAGAGATCGAAGTACTCAGCGTAAGTTTTTTGGAAA antisense: AGCTTTTCCAAAAAACTTACGCTGAGTACTTCGATCTCTTGAATCGAAGTACTCAGCGTAAGGGG,influence on tumor growth in vivo (tumor volume),[3],does not influence tumor growth in vivo
same,tumor growth,LOX-IMVI tumors,did not affect tumor growth kinetics
same,tumor growth,LOX-IMVI tumors; listed as control shRNA directed against Luciferase,continued to increase in size
